Data: patent US20240158446A1, “CYCLIC COMPOUND HAVING SELECTIVE INHIBITORY ACTION ON KRAS OVER HRAS AND NRAS” (CHUGAI SEIYAKU KABUSHIKI KAISHA, priority 2021, published 2024)
Read-outs that look alike come from different tables or passages of the source. *1 amine or outer side, *2 acyl side, *3 side chain or, on linkers, in order; H or OH if unused. Where a SMILES comes first, the peptide text is derived from it. Bridges are numbered along the chain shown (N, C = ends). [ ]: non-standard residue; d: D form. The star is where a group is joined. hPhe(3,5-F2-4-CF3) = N[C@@H](CCc1cc(F)c(C(F)(F)F)c(F)c1)C(=O)O; hPhe(3-Cl-4-CF3) = N[C@@H](CCc1ccc(C(F)(F)F)c(Cl)c1)C(=O)O; NPrPhe(4-CF3) = CCCN[C@@H](Cc1ccc(C(F)(F)F)cc1)C(=O)O; X20 = Cc1ccc(C[C@@H](C(=O)[*:2])N(CC2CCCC2)[*:1])cc1; NEtPhe(4-Me) = CCN[C@@H](Cc1ccc(C)cc1)C(=O)O; NMeAbu(4,4,4-F3) = CN[C@@H](CC(F)(F)F)C(=O)O; NMeGly(cPent) = CN[C@H](C(=O)O)C1CCCC1; Pro(4,4-F2) = O=C(O)[C@@H]1CC(F)(F)CN1; Hyp = O=C(O)[C@@H]1C[C@@H](O)CN1; NMeD = CN[C@@H](CC(=O)O)C(=O)O; NMeL = CN[C@@H](CC(C)C)C(=O)O; Morpholide = C1CN(*)CCO1; NMeA = CN[C@@H](C)C(=O)O; Ac5c = NC1(C(=O)O)CCCC1; Aze = O=C(O)[C@@H]1CCN1; Ac4c = NC1(C(=O)O)CCC1; Ac3c = NC1(C(=O)O)CC1; Sar = CNCC(=O)O

Legend:
[1] = target: GDP-bound KRAS wild-type protein (Homo sapiens, UniProt P01116); test: Binding to KRAS by surface plasmon resonance (SPR), Single Cycle Kinetics; settings: GDP-bound KRAS wild-type protein, read-out: KRAS KD
[2] = target: GDP-bound HRAS wild-type protein (Homo sapiens, UniProt P01112); test: Binding to HRAS by surface plasmon resonance (SPR), Single Cycle Kinetics; settings: for HRAS/KRAS (ratio of KD value with respect to HRAS to KD value with respect to KRAS) / HRAS/KRAS (ratio of KD value for HRAS to KD value for KRAS): SPR, GDP-bound HRAS wild-type protein vs GDP-bound KRAS wild-type protein
[3] = target: GDP-bound NRAS wild-type protein (Homo sapiens, UniProt P01111); test: Binding to NRAS by surface plasmon resonance (SPR), Single Cycle Kinetics; settings: for NRAS/KRAS (ratio of KD value with respect to NRAS to KD value with respect to KRAS) / NRAS/KRAS (ratio of KD value for NRAS to KD value for KRAS): SPR, GDP-bound NRAS wild-type protein vs GDP-bound KRAS wild-type protein
[4] = SPR Single Cycle Kinetics, 1:1 binding model

Sequence of GDP-bound NRAS wild-type protein (P01111 whole entry): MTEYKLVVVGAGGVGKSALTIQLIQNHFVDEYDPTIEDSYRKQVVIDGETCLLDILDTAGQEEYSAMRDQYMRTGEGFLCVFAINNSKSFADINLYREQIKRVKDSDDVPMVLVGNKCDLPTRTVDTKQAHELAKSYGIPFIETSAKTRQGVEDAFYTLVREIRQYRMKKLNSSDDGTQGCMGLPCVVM
Sequence of GDP-bound KRAS wild-type protein (P01116 whole entry): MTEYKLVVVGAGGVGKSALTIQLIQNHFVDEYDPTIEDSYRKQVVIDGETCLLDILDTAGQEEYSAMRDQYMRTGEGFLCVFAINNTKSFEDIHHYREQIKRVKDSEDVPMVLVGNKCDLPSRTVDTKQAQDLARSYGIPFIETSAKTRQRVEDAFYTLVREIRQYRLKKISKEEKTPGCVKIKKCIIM
Sequence of GDP-bound HRAS wild-type protein (P01112 whole entry): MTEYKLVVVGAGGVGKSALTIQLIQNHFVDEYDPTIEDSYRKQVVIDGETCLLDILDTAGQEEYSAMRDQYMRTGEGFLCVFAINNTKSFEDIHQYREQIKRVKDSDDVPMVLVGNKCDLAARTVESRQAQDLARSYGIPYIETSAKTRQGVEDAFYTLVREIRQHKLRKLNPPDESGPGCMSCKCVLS

Kd [1, 4]	Kd ([1]; SPR, Single Cycle Kinetics)	Structure (SMILES)	HRAS/KRAS (ratio of KD value with respect to HRAS to KD value with respect to KRAS) [2]	NRAS/KRAS (ratio of KD value with respect to NRAS to KD value with respect to KRAS) [3]	HRAS/KRAS (ratio of KD value for HRAS to KD value for KRAS) [2]	NRAS/KRAS (ratio of KD value for NRAS to KD value for KRAS) [3]	HRAS/KRAS (ratio of KD value with respect to GDP-bound HRAS wild-type protein to KD value with respect to KRAS) ([2]; SPR KD ratio HRAS/KRAS, class symbols)	NRAS/KRAS (ratio of KD value with respect to GDP-bound NRAS wild-type protein to KD value with respect to KRAS) ([3]; SPR KD ratio NRAS/KRAS, class symbols)
0.92 nM	–	CC[C@H](C)[C@@H]1NC(=O)[C@H](CC(C)C)N(C)C(=O)C[C@@H](C(=O)N2CCOCC2)N(C)C(=O)[C@H](C2CCCC2)N(C)C(=O)C2(CCC2)NC(=O)[C@@H]2CC(F)(F)CN2C(=O)[C@H](CCc2cc(F)c(C(F)(F)F)c(F)c2)NC(=O)CN(C)C(=O)[C@H](Cc2ccc(C(F)(F)F)cc2)N2CCCCC[C@@H](C2=O)N(C)C(=O)CN(C)C1=O [PP0464]	B (a compound having 3 or more and less than 10 is denoted as B)	B (a compound having 3 or more and less than 10 is denoted as B)	–	–	–	–
1.2 nM	–	CCCN1C(=O)[C@@H]2CCN2C(=O)[C@H](C)N(C)C(=O)[C@H]([C@@H](C)CC)NC(=O)[C@H](CC(C)C)N(C)C(=O)C[C@@H](C(=O)N2CCOCC2)NC(=O)[C@H](C2CCCC2)N(C)C(=O)C2(CCC2)NC(=O)[C@@H]2CC(F)(F)CN2C(=O)[C@H](CCc2ccc(C(F)(F)F)c(Cl)c2)NC(=O)CN(C)C(=O)[C@@H]1Cc1ccc(C(F)(F)F)cc1 [PP0346] ([NMeL]I[NMeA][Aze][NPrPhe(4-CF3)][Sar][hPhe(3-Cl-4-CF3)][Pro(4,4-F2)][Ac4c][NMeGly(cPent)]D-Morpholide; lactam N-11)	–	–	B (a compound having 3 or more and less than 10 is denoted as B)	C (A compound having a KD ratio of 0.1 or more and less than 3 is denoted as C)	–	–
0.16 nM	–	CC[C@H](C)[C@@H]1NC(=O)[C@H](CC(C)C)N(C)C(=O)C[C@@H](C(=O)N2CCOCC2)N(C)C(=O)[C@H](C2CCCC2)N(C)C(=O)C2(CCCC2)NC(=O)[C@@H]2CCCN2C(=O)[C@H](CCc2ccc(C(F)(F)F)c(Cl)c2)NC(=O)CN(C)C(=O)[C@H](Cc2ccc(OC)cc2)N2CCCC[C@@H](C2=O)N(C)C(=O)CN(C)C1=O [PP0534]	B (a compound having 3 or more and less than 10 is denoted as B)	B (a compound having 3 or more and less than 10 is denoted as B)	–	–	–	–
0.052 nM	–	CCCN1C(=O)CN(C)C(=O)CN(C)C(=O)[C@H]([C@@H](C)CC)NC(=O)[C@H](CC(C)C)N(C)C(=O)C[C@@H](C(=O)N2CCOCC2)N(C)C(=O)[C@H](C2CCCC2)N(C)C(=O)C2(CCCC2)NC(=O)[C@@H]2C[C@@H](OCC)CN2C(=O)[C@H](CCc2ccc(C(F)(F)F)c(Cl)c2)NC(=O)CN(C)C(=O)[C@@H]1Cc1ccc(C(F)(F)F)cc1 [PP0233] ([NMeL]I[Sar][Sar][NPrPhe(4-CF3)][Sar][hPhe(3-Cl-4-CF3)][Hyp](Et)[Ac5c][NMeGly(cPent)][NMeD]-Morpholide; lactam N-11)	–	–	C (A compound having a KD ratio of 0.1 or more and less than 3 is denoted as C)	B (a compound having 3 or more and less than 10 is denoted as B)	–	–
0.28 nM	–	CCC[C@H]1C(=O)N[C@@H]([C@@H](C)CC)C(=O)N(C)CC(=O)N(C)[C@H]2C/C=C\CCN(C2=O)[C@@H](Cc2ccc(C(F)(F)F)cc2)C(=O)N(C)CC(=O)N[C@@H](CCc2ccc3sc(F)c(C)c3c2)C(=O)N2C[C@H](OCC)C[C@H]2C(=O)NC2(CC(C)(C)C2)C(=O)N(C)[C@@H](C(CC)CC)C(=O)N(C)[C@H](C(=O)N(C)C)CC(=O)N1C [PP2892]	–	–	–	–	A (a compound having 10 or more and less than 20 is denoted as A)	A (a compound having 10 or more and less than 20 is denoted as A)
0.25 nM	–	CCCN1C(=O)CN(C)C(=O)CN(C)C(=O)[C@H]([C@@H](C)CC)NC(=O)[C@H](CC(C)C)N(C)C(=O)C[C@@H](C(=O)N2CCOCC2)N(C)C(=O)[C@H](C2CCCC2)N(C)C(=O)C2(CC2)NC(=O)[C@@H]2CCCN2C(=O)[C@H](CCc2ccc(C(F)(F)F)c(Cl)c2)NC(=O)CN(C)C(=O)[C@@H]1Cc1ccc(C(F)(F)F)cc1 [PP0229] ([NMeL]I[Sar][Sar][NPrPhe(4-CF3)][Sar][hPhe(3-Cl-4-CF3)]P[Ac3c][NMeGly(cPent)][NMeD]-Morpholide; lactam N-11)	–	–	B (a compound having 3 or more and less than 10 is denoted as B)	B (a compound having 3 or more and less than 10 is denoted as B)	–	–
0.09 nM	–	CCO[C@@H]1C[C@H]2C(=O)NC3(CCCC3)C(=O)N(C)[C@@H](C3CCCC3)C(=O)N(C)[C@H](C(=O)N3CCOCC3)CC(=O)N(C)[C@@H](CC(C)C)C(=O)N[C@@H]([C@@H](C)CC)C(=O)N(C)[C@@H](C)C(=O)N3CC[C@H]3C(=O)N(CC)[C@@H](Cc3ccc(C)cc3)C(=O)N(C)CC(=O)N[C@@H](CCc3ccc(C(F)(F)F)c(Cl)c3)C(=O)N2C1 [PP0014] ([NMeL]I[NMeA][Aze][NEtPhe(4-Me)][Sar][hPhe(3-Cl-4-CF3)][Hyp](Et)[Ac5c][NMeGly(cPent)][NMeD]-Morpholide; lactam N-11)	–	–	C (A compound having a KD ratio of 0.1 or more and less than 3 is denoted as C)	C (A compound having a KD ratio of 0.1 or more and less than 3 is denoted as C)	–	–
–	0.093 nM	CC[C@H](C)[C@@H]1NC(=O)[C@H](C2CC2)N(C)C(=O)C[C@@H](C(=O)N(C)CC)N(C)C(=O)[C@H](C2CCCC2)N(C)C(=O)C2(CCC2)NC(=O)[C@@H]2C[C@H](C)CN2C(=O)[C@H](CCc2cc(F)c(C(F)(F)F)c(F)c2)NC(=O)CN(C)C(=O)[C@H](Cc2ccc(C(F)(F)F)cc2)N2CC/C=C\C[C@@H](C2=O)N(C)C(=O)CN(C)C1=O [PP2080]	–	–	A (a compound having 10 or more and less than 20 is denoted as A)	A (a compound having 10 or more and less than 20 is denoted as A)	–	–
0.23 nM	–	CCCN1C(=O)[C@@H]2CCN2C(=O)[C@H](C)N(C)C(=O)[C@H]([C@@H](C)CC)NC(=O)[C@H](CC(C)C)NC(=O)C[C@@H](C(=O)N2CCOCC2)N(C)C(=O)[C@H](C2CCCC2)N(C)C(=O)C2(CCCC2)NC(=O)[C@@H]2CCCN2C(=O)[C@H](CCc2ccc(C(F)(F)F)c(Cl)c2)NC(=O)CN(C)C(=O)[C@@H]1Cc1ccc(C(F)(F)F)cc1 [PP0154] (LI[NMeA][Aze][NPrPhe(4-CF3)][Sar][hPhe(3-Cl-4-CF3)]P[Ac5c][NMeGly(cPent)][NMeD]-Morpholide; lactam N-11)	–	–	B (a compound having 3 or more and less than 10 is denoted as B)	C (A compound having a KD ratio of 0.1 or more and less than 3 is denoted as C)	–	–
–	1.1 nM	CC[C@H](C)[C@@H]1NC(=O)[C@H](CC(C)C)N(C)C(=O)C[C@@H](C(=O)N2CCOCC2)N(C)C(=O)[C@H](C2CCCC2)N(C)C(=O)C2(CCC2)NC(=O)[C@@H]2C[C@@H](OCC3CC3)CN2C(=O)[C@H](CCc2cc(F)c(C(F)(F)F)c(F)c2)NC(=O)CN(C)C(=O)[C@H](Cc2ccc(C(F)(F)F)cc2)N2CCCCC[C@@H](C2=O)N(C)C(=O)CN(C)C1=O [PP1005]	–	–	A (a compound having 10 or more and less than 20 is denoted as A)	A (a compound having 10 or more and less than 20 is denoted as A)	–	–
0.042 nM	–	CCCN1C(=O)[C@@H]2CCN2C(=O)[C@H](C)N(C)C(=O)[C@H]([C@@H](C)CC)NC(=O)[C@H](CC(C)C)N(C)C(=O)C[C@@H](C(=O)N2CCOCC2)N(C)C(=O)[C@H](C2CCCC2)N(C)C(=O)C2(CCC2)NC(=O)[C@@H]2C[C@@H](OCC)CN2C(=O)[C@H](CCc2ccc(C(F)(F)F)c(Cl)c2)NC(=O)CN(C)C(=O)[C@@H]1Cc1ccc(C(F)(F)F)cc1 [PP0406] ([NMeL]I[NMeA][Aze][NPrPhe(4-CF3)][Sar][hPhe(3-Cl-4-CF3)][Hyp](Et)[Ac4c][NMeGly(cPent)][NMeD]-Morpholide; lactam N-11)	–	–	B (a compound having 3 or more and less than 10 is denoted as B)	C (A compound having a KD ratio of 0.1 or more and less than 3 is denoted as C)	–	–
2.7 nM	–	CC[C@H](C)[C@@H]1NC(=O)[C@H](CC(C)C)N(C)C(=O)C[C@@H](C(=O)N2CCOCC2)N(C)C(=O)[C@H](C2CCCC2)N(C)C(=O)C2(CCCC2)NC(=O)[C@@H]2CCCN2C(=O)[C@H](CCc2ccc(C(F)(F)F)c(Cl)c2)NC(=O)CN(C)C(=O)[C@H](Cc2ccc(C)cc2)N(CC2CCCC2)C(=O)[C@@H]2CCN2C(=O)[C@H](C)N(C)C1=O [PP0084] ([NMeL]I[NMeA][Aze][X20][Sar][hPhe(3-Cl-4-CF3)]P[Ac5c][NMeGly(cPent)][NMeD]-Morpholide; lactam N-11)	–	–	B (a compound having 3 or more and less than 10 is denoted as B)	C (A compound having a KD ratio of 0.1 or more and less than 3 is denoted as C)	–	–
1.9 nM	–	CCCN1C(=O)CN(C)C(=O)CN(C)C(=O)[C@H]([C@@H](C)CC)NC(=O)[C@H](CC(C)C)N(C)C(=O)C[C@@H](C(=O)N2CCOCC2)N(C)C(=O)[C@H](CC(F)(F)F)N(C)C(=O)C2(CCCC2)NC(=O)[C@@H]2CCCN2C(=O)[C@H](CCc2cc(F)c(C(F)(F)F)c(F)c2)NC(=O)CN(C)C(=O)[C@@H]1Cc1ccc(C(F)(F)F)cc1 [PP0767] ([NMeL]I[Sar][Sar][NPrPhe(4-CF3)][Sar][hPhe(3,5-F2-4-CF3)]P[Ac5c][NMeAbu(4,4,4-F3)][NMeD]-Morpholide; lactam N-11)	C (A compound having a KD ratio of 0.1 or more and less than 3 is denoted as C)	B (a compound having 3 or more and less than 10 is denoted as B)	–	–	–	–
